Test results published in PubChem BioAssay AID504765 (Sanford-Burnham Center for Chemical Genomics, 2011).
pIC50: −log10 of the molar value. The source made the active and inactive calls. The rule behind the calls is not given here.

These molecules were tested against glucose-6-phosphate dehydrogenase-6-phosphogluconolactonase (Plasmodium falciparum 3D7) (assay: PfG6PD inhibitor potency, dose response, biochemical, fluorescence intensity (AID 504765)). Conditions: Recombinant PfG6PD enzyme, fluorescence intensity (NADPH).

| Structure (SMILES) | pIC50 | IC50 |
| --- | --- | --- |
| Cc1ccc(-c2c(C(=O)N/N=C/c3cccs3)nnn2-c2nonc2N)cc1 | 5.41 |  |
| COc1ccc(-n2sc3ccccc3c2=O)cc1 | 5.83 |  |
| Cc1ccsc1/C=N/NC(=O)c1cccc(S(=O)(=O)Nc2ccccc2Cl)c1 | 4.88 |  |
| CCc1ccc(S(=O)(=O)Nc2cc(SCC(=O)O)c(O)c3ccccc23)cc1 | 5.25 |  |
| Cc1cc(C)c2c(=O)n(CC(=O)Nc3ccc(Br)c(C)c3)sc2n1 | 5.58 |  |
| COC1=CC(=O)C=C(OC)C1(O)CC(C)=O | 5.23 |  |
| CC(=O)Nc1ccc2c(=O)n(-c3ccccc3)sc2c1 | 5.07 |  |
| CC(C)c1nnc(NC(=O)c2cc3ccccc3o2)s1 | 4.78 |  |
| OCCN1CCN(C(=S)c2ccc(Cl)c(Cl)c2)CC1 | 4.90 |  |
| O=C1Nc2ccccc2C(=O)C1(Cl)Cc1ccccc1 (centres undefined) | 5.02 |  |
| O=C1C=C(NCCc2cc(Br)c(O)c(Br)c2)C(=O)c2ncccc21 | 5.87 |  |
| COc1ccc(N=C2C(=S)N(c3ccc(OC)cc3)C(=NS(=O)(=O)c3ccccc3)N2c2ccccc2)cc1 | 5.62 |  |
| O=C1C=CC(=O)N1CCCCCCCCCCN1C(=O)C=CC1=O | 4.87 |  |
| O=C(CCc1ccc(S(=O)(=O)N2CCOCC2)cc1)N/N=C/c1ccc(O)c(O)c1O | 5.24 |  |
| Cc1ccc(S(=O)(=O)N(C(=O)c2ccncc2)c2ccc(OC(=O)c3ccncc3)c3ccccc23)cc1 | 4.75 |  |
| CNCc1ccccc1Sc1cc(O)ccc1O | 5.65 |  |
| COc1ccc2nc3cc(Cl)ccc3c(Nc3ccc(O)c(CN4CCN(C)CC4)c3)c2c1 |  | inactive |
| O=C(CN1CCN(c2ccc(O)cc2)CC1)Nc1cc(S(=O)(=O)N2CCOCC2)ccc1Cl |  | inactive |
| O=C(CCC(=O)OCC(=O)c1ccc([N+](=O)[O-])cc1)Nc1ccccc1Cl | 5.18 |  |
| CCCCCCCCSC1=CC(=O)C(OC)=C(OC)C1=O | 5.77 |  |
| O=[N+]([O-])c1c(NCCO)cc(Sc2nc3ccccc3s2)c2nonc12 | 4.99 |  |
| O=C(Cn1sc2ccccc2c1=O)Nc1ccccc1 | 5.71 |  |
| CN1CCN(C(=S)c2ccc([N+](=O)[O-])cc2)CC1 |  | inactive |

| Structure (SMILES) | pIC50 | IC50 |
| --- | --- | --- |
| COc1cc(N(C)C)ccc1C=c1c2ccccc2n2c1cc(-c1ccccc1)[n+]2C | 5.04 |  |
| O=C1C=CC(=O)N1c1ccc2c(c1)C(NC(=O)C(F)(F)F)c1ccccc1-2 (centres undefined) | 5.04 |  |
| CCOc1ccc(S(=O)(=O)Nc2cc(SCC(=O)O)c(O)c3ccccc23)cc1 | 5.61 |  |
| C[C@H](NC(N)=O)C(=O)Nc1ccc(N2CCOCC2)c(S(=O)(=O)Nc2ccc(Cl)cc2)c1 |  | inactive |
| O=[N+]([O-])c1ccc(N/N=C/c2ccc(O)c(O)c2O)c(S(=O)(=O)N2CCOCC2)c1 | 5.06 |  |
| CN(C)c1ccc(C=c2c3cc([N+](=O)[O-])ccc3n3c2cc(-c2ccccc2)[n+]3C)cc1 | 5.07 |  |
| Nc1ccc(N(CCO)CCO)cc1 | 5.33 |  |
| Cc1c(C(=O)N(Cc2ccccc2Cl)C2CCS(=O)(=O)C2)oc2ccccc12 (centres undefined) | 5.36 |  |
| O=C1CCN(c2ccccc2)N1 | 5.87 |  |
| CCN1CCCC1CNC(=O)c1ccc2c(c1)NC(=O)/C(=C\c1ccccc1F)S2 (centres undefined) | 5.71 |  |
| CCN(CC)C(=S)SSC(=S)N(CC)CC | 5.00 |  |
| COC(=O)C1=C(C(=O)OC)SC2(S1)C(C(=O)OC)=C(C(=O)OC)Sc1c2ssc1=O | 5.85 |  |
| O=C1NC(=O)N(c2ccccc2)C(=O)/C1=C/c1ccc([N+](=O)[O-])s1 | 5.00 |  |
| CCCCC1C(=O)N(c2ccccc2)N(c2ccc(O)cc2)C1=O (centres undefined) | 4.90 |  |
| COC(=O)CCC(=O)OC1(C)C(=O)C2=CN(c3ccc(OC)cc3)C(c3ccc(OC)cc3)=CC2=C(Br)C1=O (centres undefined) | 5.51 |  |
| Cc1nc(COC(=O)c2cc(O)c3ccccc3c2O)cs1 | 5.45 |  |
| O=c1c2ccccc2[se]n1-c1ccccc1 | 5.02 |  |
| Cc1noc(C(=O)Nc2sc3c(c2C#N)CCC3)c1Cl | 5.32 |  |
| O=C(OCC(=O)c1ccc([N+](=O)[O-])cc1)/C(=C\c1ccc(Cl)cc1)NC(=O)c1ccccc1 |  | inactive |
| COc1cccc(C(=O)Nc2nnc(C(C)C)s2)c1 | 5.23 |  |
| COc1ccc(CCn2c(NN)nc3c2c(=O)[nH]c(=O)n3C)cc1 | 5.13 |  |
| O=C(Nc1nnc(S(=O)(=O)N2CCCCCC2)s1)c1cccc(Br)c1 | 4.82 |  |
| O=C(CSc1nc2cc(Cl)ccc2s1)c1ccco1 | 5.22 |  |

| Structure (SMILES) | pIC50 | IC50 |
| --- | --- | --- |
| C=CCOc1c(Cl)cc(CNc2ccc3[nH]c(=O)[nH]c3c2)cc1OC | 5.10 |  |
| Nc1cc(N)c(OCC(F)(F)F)cc1OCC(F)(F)F | 5.79 |  |
| CCOc1cc(NCc2ccccc2)c2ncn(C(C)C)c2c1 |  | > 80 µM (inactive) |
| CN1CC[C@@]2(C)c3cc(O)ccc3N(C)[C@@H]12 | 5.82 |  |
| CN1CCc2cccc3c2[C@H]1Cc1ccc(O)c(O)c1-3 | 5.08 |  |
| COc1cc(NCc2ccccc2)c2ncn(Cc3ccccc3)c2c1 |  | > 80 µM (inactive) |
| O=C1C=CC(=O)N1CCNc1ncc(C(F)(F)F)cc1Cl | 4.70 |  |
| CCOc1ccccc1CNc1ccc(O)cc1 | 4.72 |  |
| O=S(=O)(Nc1ccccc1F)c1cccc(NC(=S)NCCN2CCOCC2)c1 | 5.10 |  |
| CC(NC1=CC(=O)c2cccnc2C1=O)C(O)c1ccccc1 (centres undefined) | 5.39 |  |
| Cc1ccc(S(=O)(=O)C=CS(=O)(=O)c2ccc(C)cc2)cc1 | 5.18 |  |
| Cc1[nH]c2ccccc2c1/C=N/Nc1nncn1N | 5.25 |  |
| CCN1CCCC1CNC(=O)c1ccc2c(c1)NC(=O)/C(=C\c1ccc(C)cc1)S2 (centres undefined) | 5.50 |  |
| Cc1ccc(NC2=C(NC(=O)c3ccccc3)C(=O)c3ccccc3C2=O)cc1Cl | 4.99 |  |
| Cc1cc(C(=O)O)ccc1-n1c(C)cc(C=C2C(=O)c3ccccc3C2=O)c1C | 5.15 |  |
| Cc1ccc(/C=C/C(=O)NCC2COc3ccccc3O2)o1 (centres undefined) | 5.44 |  |
| COc1ccc(/C=C/c2nc3ccccc3n2Cc2ccc(OC)c(OC)c2)cc1 |  | inactive |
| CCC1(C)CC(C(N)=S)CCO1 (centres undefined) |  | inactive |
| CN(C)C=Nc1ccc2nc3c(cc2c1)[nH]c1ccccc13 | 5.00 |  |
| Cc1cccc(C(=O)Nc2nnc(S(=O)(=O)N3CCOCC3)s2)c1 | 5.13 |  |
| COc1ccc(C(=O)c2c(C(F)(F)F)oc3c2C(=O)c2ccccc2C3=O)cc1 |  | inactive |
| CC1(OC(=O)C2CCCC2)C(=O)C=C2C=C(c3ccsc3)N(CCc3c[nH]c4ccccc34)C=C2C1=O (centres undefined) | 5.30 |  |
| c1ccc(-c2nc(N3CCOCC3)s[n+]2-c2ccccc2)cc1 | 5.40 |  |

| Structure (SMILES) | pIC50 | IC50 |
| --- | --- | --- |
| Cn1c(=O)[nH]c(=O)c2c1[nH]c(=S)n2CCCc1ccccc1 |  | inactive |
| COC(=O)[C@H](C)NC(=O)c1cc2c(cn1)[nH]c1ccccc12 |  | inactive |
| COc1cc(N)c2ncccc2c1Cl | 5.16 |  |
| O=C(CCc1ccc(O)c(O)c1)N/N=C/c1cc2c(cc1[N+](=O)[O-])OCO2 | 4.85 |  |
| CN1CCc2cc(O)cc3c2[C@H]1Cc1ccc(O)c(O)c1-3 | 4.82 |  |
| O=C(CNC(=O)c1cccs1)OCC(=O)c1ccc([N+](=O)[O-])cc1 | 4.86 |  |
| C=CCOc1c(Cl)cc(CNc2ccc(N(C)C)cc2)cc1OC | 5.01 |  |
| O=[N+]([O-])c1cccc(SSc2cccc([N+](=O)[O-])c2)c1 | 5.12 |  |
| Cc1cc(C)nc(/N=C(\N)Nc2ccccc2-c2ccccc2)n1 | 5.09 |  |
| Cc1ccc(N2CC(C(=O)OCC(=O)c3ccc([N+](=O)[O-])cc3)CC2=O)cc1 (centres undefined) | 5.06 |  |
| COCc1cc(=O)n2[nH]c(C(C)(C)C)cc2n1 | 4.85 |  |
| CN(C)c1cccc2c1c(NC(=O)c1ccc(F)cc1)nn2C | 4.72 |  |
| Cc1ccc(-c2c(C(=O)N/N=C/c3ccc(C)o3)nnn2-c2nonc2N)cc1 | 5.84 |  |
| COc1cc(/C=C2\SC(c3ccc(C)cc3)=NC2=O)cc(OC)c1O | 5.03 |  |
| CC1=C(C)CS(=O)N(S(=O)(=O)c2ccc(Cl)cc2)C1 (centres undefined) |  | inactive |
| CCN1CCN(c2nc(C)nc3c2sc(=S)n3C)CC1 | 4.82 |  |
| S=c1ncc2[nH]c(=S)[nH]c2[nH]1 | 5.36 |  |
| Nc1c(O)cccc1C(=O)O | 5.84 |  |
| O=C(COc1cccc2ccccc12)Nc1ccc(Cl)cc1C(=O)O | 4.87 |  |
| CCC(C)(C)c1nnc(NC(=O)C2CCN(C(=O)c3ccco3)CC2)s1 |  | inactive |
| COc1ccc(/C=C/c2nc3ccccc3n2C)cc1 | 5.09 |  |
| CC(C)c1nnc(NC(=O)c2cccc(-n3cnnn3)c2)s1 | 5.26 |  |
| COc1cc(/C=N/n2cc(-c3ccccc3)[nH]c2=S)cc(OC)c1O | 4.71 |  |

| Structure (SMILES) | pIC50 | IC50 |
| --- | --- | --- |
| COc1cc(CN2CCN(CCCc3ccccc3)C(CCO)C2)cc(OC)c1O (centres undefined) | 5.11 |  |
| CCc1c(C(=O)Nc2ccccc2)c(C)[nH]c(=S)c1C#N |  | inactive |
| Cc1cc(O)c(-c2cc(O)c(C)cc2O)cc1O | 5.73 |  |
| COc1cc(NCc2ccccc2)c2ncn(C(C)C)c2c1 |  | inactive |
| O=c1[nH]c2ccc(NCc3ccccc3OCc3ccc(Cl)cc3)cc2[nH]1 |  | > 80 µM (inactive) |
| Cc1ccccc1OCC(=O)N/N=C/c1ccc(Sc2nc3ccccc3s2)o1 | 4.77 |  |
| CCn1c(SCC(=O)Nc2ccccc2OC)nnc1-c1cnccn1 |  | inactive |
| Cn1c(=O)[nH]c(=O)c2c1nc([N+](=O)[O-])n2Cc1ccccc1 | 5.50 |  |
| CC(C)(C)c1ccc(C(=O)Nc2sc3c(c2C(=O)O)CCC3)cc1 | 4.90 |  |
| CN1C(=O)C(N=Nc2ccc([N+](=O)[O-])cc2)SC1=S (centres undefined) | 5.27 |  |
| Cc1ccc2nc(-c3ccc(NC(=S)NC4CC(C)(C)NC(C)(C)C4)cc3)sc2c1 | 5.62 |  |
| Cc1ccc(CNc2ccc(O)cc2)cc1 | 5.06 |  |
| O=C(CNC(=O)c1ccccc1)NCC(=O)OCC(=O)c1ccc([N+](=O)[O-])cc1 |  | inactive |
| COc1ccc(CN(C)S(=O)(=O)c2nnc(NC(=O)c3cccc(C)c3)s2)cc1OC | 5.16 |  |
| CCN(CC)CCNC(=O)CCCCn1c(=S)[nH]c2c([nH]c3ccc(OC)cc32)c1=O |  | inactive |
| Cc1cc(C)c2sc(NC(=O)C3=COCCO3)nc2c1 | 4.96 |  |
| CCOc1ccc(NC(=O)Cn2sc3nc(C)cc(C)c3c2=O)cc1 | 5.73 |  |
| O=C(Nc1nc(-c2ccncc2)cs1)C1COc2ccccc2O1 (centres undefined) |  | inactive |
| COc1c(O)ccc2c1CN1CCc3cc4c(cc3C1C2)OCO4 (centres undefined) | 4.81 |  |
| CCn1c([N+](=O)[O-])nc2c1c(=O)[nH]c(=O)n2C | 4.91 |  |
| CCCN1CCc2cccc3c2[C@H]1Cc1ccc(O)c(O)c1-3 | 4.82 |  |
| Cc1[nH]c2ccccc2c1/C=N/NC(=O)c1cccc(S(=O)(=O)Nc2ccccc2Cl)c1 | 5.06 |  |
